This note sets out measurements from article PMC6697720, “Saturation of acyl chains converts cardiolipin from an antagonist to an activator of Toll-like receptor-4” (Cellular and Molecular Life Sciences: CMLS, 2019).

SMILES strings stand for the structures.

Assay [1] concerns human PBMCs. The experiment in a line: LPS-induced TNF-α and IL-1β release in human PBMCs. Particulars: LPS 100 ng/mL. Type of assay: cell-based. As to the method: Blood from healthy volunteers was collected upon informed consent. PBMCs were obtained by Ficoll gradient centrifugation in Histopaque-1077 (Sigma-Aldrich, St Louis, Missouri, United States) using SepMate™ isolation tubes from STEMCELL™ according to the manufacturer’s instructions. Isolated PBMCs were resuspended in RPMI 1640 supplemented with 10% heat-inactivated FBS.
(§1) 100.000 of freshly isolated PBMCs or monocytes were mixed with stimulants to a final volume of 160 μL/well in round bottom 96-well plates.
(§2) After stimulation, supernatants were collected, centrifuged, and assayed for cytokine secretion, while cells were assayed for viability.
TNF-α and IP-10 were quantified in cell supernatants using DuoSet ELISA kits from R&D Systems and human IL-1β using Instant ELISA™ Kit from Invitrogen, according to the manufacturer’s instructions. Absorbance was read with a BioTek Synergy HT Microplate Readers. […]

The subject of assay [2] is primary human monocytes. The experiment in a line: TNF-α and IL-1β secretion in primary human monocytes incubated with CL. Type of assay: cell-based. The settings on record: with NLRP3 inhibitor MCC950. How it is done:
Human monocytes were isolated from PBMCs by immunomagnetic negative selection using the EasySep™ human monocyte enrichment kit without CD16 depletion (STEMCELL™ Technologies).
as §1, §2
TNF-α and IP-10 were quantified in cell supernatants using DuoSet ELISA kits from R&D Systems and human IL-1β using Instant ELISA™ Kit from Invitrogen, according to the manufacturer’s instructions. Absorbance was read with a BioTek Synergy HT Microplate Readers.
Fig. 3 Saturated but not unsaturated CLs have pro-inflammatory properties. a RAW-Blue™ cells were incubated overnight with the indicated amount of CL or LPS, supernatants were collected, and NF-κB activation quantified via Quanti-Blue™ test and reported here as fold induction as compared to control. Unpaired t test: differences with respect to the control (Ctrl) are not significant if p > 0.05 (no symbol); *p ≤ 0.0007. b Immortalized BMDM cells were incubated overnight with the indicated amount of CL or LPS; supernatants were collected and TNF-α quantified via ELISA assay. c, d Primary human monocytes were incubated overnight with the indicated amount of CL or LPS with or without the NLRP3 inhibitor MCC950, supernatants were collected, and TNF-α and IL-1β were quantified via ELISA assay. Graphs are representative of experiments from six different donors. Unpaired t test: differences with respect to the control (Ctrl) are not significant if p > 0.05 (no symbol); *p ≤ 0.021. Each bar represents the mean + standard deviation of three biological replicates (n = 3). Graphs are representative of at least three independent experiments
C18:0 and C18:2 CLs’ pro-inflammatory activities were validated in primary monocytes isolated from human donor blood. C18:0 CL but not C18:2 CL reproduced LPS activity inducing TNF-α and IL-1β secretion in a dose-dependent manner (Fig. 3c, d).

With `CC(C)(O)c1coc(S(=O)(=O)NC(=O)Nc2c3c(cc4c2CCC4)CCC3)c1` [MCC950], the “inhibition of LPS-induced TNF-α secretion” value in assay [1] (4 h) is “not”. Further, the “inhibition of LPS-induced IL-1β secretion” value in assay [1] (16 h) is “able to inhibit”. The “inhibition of saturated CL-induced IL-1β secretion” value in assay [2] was “inhibited”.
